Read-outs that look alike come from different tables or passages of the source.
Legend:
[1] = test system: HBV (HepAD38 cells); experiment: HBV replication assay: determination of HBV DNA from the supernatants of HepAD38 cells; assay type: cell-based; settings: Hepatitis B virus, 144 h, HBV DNA in HepAD38 supernatant at day 6, qPCR, read-out: Cell activity
Outline: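 HepAD38 cells seeded without tetracycline and treated with half-log compound dilutions; tetracycline-treated wells serve as cell control. On day 6, supernatant HBV DNA was purified and quantified by real-time PCR against plasmid standards; EC50 from non-linear regression of relative copy numbers, three experiments in triplicate.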

[2] = target: T1, HBV core protein (C-terminal truncated core protein, 149 amino acids of the N-terminal assembly domain, BODIPY-FL labelled) (UniProt P03146); experiment: Biochemical capsid assembly assay (fluorescence quenching)
T1 construct: fused on or other part: A single cysteine added after residue 149, at position 150; It carries the BODIPY-FL maleimide label
Outline: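 Fluorescence quenching of BODIPY-FL-labelled core dimers (1.0 to 2.0 μM) in 50 mM HEPES pH 7.5; compounds at 8 concentrations, 0.5 log-unit dilutions from top 100, 31.6 or 10 μM, 0.5% DMSO. Assembly started with NaCl to […]; fluorescence (ex 477/em 525 nm) read after 6 min. EC50 by non-linear regression.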

[3] = assembly started with NaCl, fluorescence read after 6 min, read-out: Assembly activity

T1 sequence (P03146 whole entry, the tested form may be a part): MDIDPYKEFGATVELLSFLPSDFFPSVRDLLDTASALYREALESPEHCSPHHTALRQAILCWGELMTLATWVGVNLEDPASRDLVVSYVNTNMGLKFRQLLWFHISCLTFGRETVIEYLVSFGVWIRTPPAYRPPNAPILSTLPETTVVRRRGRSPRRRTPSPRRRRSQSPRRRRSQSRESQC

Compound | EC50 [1] | IC50 [2, 3] | IC50 ([2]; read-out: Assembly activity, assembly started with NaCl, fluorescence read after 6 min)
Cc1cc(F)cc2[nH]c(C(=O)N3CCc4onc(C(=O)N[C@H](C)C(F)(F)F)c4C3)cc12 [Example 107, 5-(6-fluoro-4-methyl-1H-indole-2-carbonyl)-N-[(2R)-1,1,1-trifluoropropan-2-yl]-4H,5H,6H,7H-[1,2]oxazolo[4,5-c]pyridine-3-carboxamide] | < 1 µM | < 5 µM | –
CN(C(=O)c1noc2c1CN(C(=O)c1cc3ccccc3[nH]1)CC2)C1([C@H]2OC[C@H](N)CO2)CC1 [Example 108, 5-(1H-indole-2-carbonyl)-N-methyl-N-{1-[(2r,5r)-5-amino-1,3-dioxan-2-yl]cyclopropyl}-4H,5H,6H,7H-[1,2]oxazolo[4,5-c]pyridine-3-carboxamide] | < 1 µM | < 5 µM | –
CN(C(=O)c1onc2c1CN(C(=O)c1cc3ccccc3[nH]1)CC2)C1(c2ccc(C(=O)O)cc2)CC1 [Example 109, 4-{1-[N-methyl-5-(1H-indole-2-carbonyl)-4H,5H,6H,7H-[1,2]oxazolo[4,3-c]pyridine-3-amido]cyclopropyl}benzoic acid] | < 1 µM | < 5 µM | –
CN(C(=O)c1cnn2c1CN(C(=O)c1cc3c(Cl)c(F)c(Cl)cc3[nH]1)CC2)C1(c2ccc(C(=O)O)cc2)CC1 [Example 110, 4-{1-[N-methyl-5-(4,6-dichloro-5-fluoro-1H-indole-2-carbonyl)-4H,5H,6H,7H-pyrazolo [1,5-a]pyrazine-3-amido]cyclopropyl}benzoic acid] | < 1 µM | – | < 5 µM

From patent US20220306647A1, “NOVEL INDOLE-2-CARBOXAMIDES ACTIVE AGAINST THE HEPATITUS B VIRUS (HBV)” (AICURIS GMBH & CO. KG, priority 2019, published 2022)
